Laboratory results published in article PMC4306950 (Marine Drugs, 2015).

Assays:
[1] = molecular target: T1, Kv1.4 (mouse LTK fibroblasts stably transfected with Kv1.4) (Homo sapiens, UniProt P22459); test: Whole-cell patch-clamp electrophysiology on Kv1.4; type: cell-based; details: for block of Kv1.4 at 100 nM: mouse LTK fibroblasts stably transfected with Kv1.4, peptide 100 nM
T1 construct: expressed in transfected cells

[2] = molecular target: T2, hKv1.6 (HEK cells transiently transfected with hKv1.6:eGFP) (Homo sapiens, UniProt P17658); test: Whole-cell patch-clamp electrophysiology on Kv1.6; type: cell-based; details: for block of Kv1.6 at 100 nM: HEK cells transiently transfected with hKv1.6:eGFP, patched 19 h after transfection, peptide 100 nM
T2 construct: expressed in transfected cells; host or cells: HEK cells, transient, Lipofectamine 2000 (plasmid a gift from Dr. Heike Wulff)
T2 sequence (P17658 whole entry): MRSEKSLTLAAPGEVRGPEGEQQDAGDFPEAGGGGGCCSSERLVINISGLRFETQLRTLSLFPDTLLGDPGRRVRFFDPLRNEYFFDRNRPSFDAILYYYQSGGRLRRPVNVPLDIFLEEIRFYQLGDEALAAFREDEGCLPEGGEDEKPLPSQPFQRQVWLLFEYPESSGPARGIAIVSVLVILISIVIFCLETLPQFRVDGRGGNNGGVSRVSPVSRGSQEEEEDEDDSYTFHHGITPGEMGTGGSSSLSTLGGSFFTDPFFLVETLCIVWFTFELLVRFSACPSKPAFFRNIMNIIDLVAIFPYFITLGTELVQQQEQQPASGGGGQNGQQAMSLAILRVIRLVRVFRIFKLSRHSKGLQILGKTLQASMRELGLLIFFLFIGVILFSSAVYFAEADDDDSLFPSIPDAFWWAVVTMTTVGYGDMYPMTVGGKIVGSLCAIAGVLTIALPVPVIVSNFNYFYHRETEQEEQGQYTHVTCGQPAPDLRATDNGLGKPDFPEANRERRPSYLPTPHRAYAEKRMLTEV
Protocol: The HEK cells were patched 19 h after transfection.
(§1) Chips averaged 2–3.5 MΩ and a holding potential of −80 mV was used for all recordings. Series resistance compensation of 80% was used when currents exceeded 2 nA. The external solution was normal Ringer solution containing (in mM): 160 NaCl, 4.5 KCl, 2 CaCl2, 1 MgCl2, 10 Hepes, pH 7.4, 310 mOsm. The internal solution contained (in mM): 145 KF, 10 HEPES, 10 EGTA (ethylene glycol tetraacetic acid), 2 MgCl2, pH 7.2, 300 mOsm. Currents were elicited by repeated 200 ms pulses to 40 mV applied at intervals of 30 s for Kv1.3 and 10 s for Kv1.1. IC50 values were determined by fitting the Hill equation to the reduction of area under the current curve measured at 40 mV in the presence of different concentrations of the peptides (GraphPad Prism software, La Jolla, CA, USA).

[3] = molecular target: T3, mKv1.3 channels stably expressed in mouse L929 fibroblasts (Mus musculus, UniProt P16390); test: Whole-cell patch-clamp electrophysiology on Kv1.3; type: cell-based; details: mKv1.3 in L929 fibroblasts, 200 ms pulses to 40 mV every 30 s, holding -80 mV, Hill fit, n = 3 to 6 cells per concentration
T3 construct: expressed in transfected cells
T3 sequence (P16390 whole entry): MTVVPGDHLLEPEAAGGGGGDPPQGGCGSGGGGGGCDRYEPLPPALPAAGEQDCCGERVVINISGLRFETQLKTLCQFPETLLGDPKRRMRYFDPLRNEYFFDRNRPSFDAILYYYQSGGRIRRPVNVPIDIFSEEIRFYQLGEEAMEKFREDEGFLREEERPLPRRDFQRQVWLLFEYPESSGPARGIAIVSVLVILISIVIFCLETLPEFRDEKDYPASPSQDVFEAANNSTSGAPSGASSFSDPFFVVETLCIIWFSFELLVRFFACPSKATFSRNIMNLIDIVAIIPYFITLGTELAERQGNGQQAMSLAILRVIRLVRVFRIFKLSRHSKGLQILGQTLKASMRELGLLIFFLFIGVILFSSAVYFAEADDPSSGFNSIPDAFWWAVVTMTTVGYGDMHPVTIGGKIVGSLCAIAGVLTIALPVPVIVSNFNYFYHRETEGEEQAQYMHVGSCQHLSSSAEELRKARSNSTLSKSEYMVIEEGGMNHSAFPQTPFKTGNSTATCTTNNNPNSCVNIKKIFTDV
Protocol: Mouse fibroblasts stably expressing homotetramers of Kv1.1 or Kv1.3 were patch-clamped in the whole-cell configuration and steady-state block was measured after addition of different concentrations of the peptides.
as §1

[4] = system: acute adoptive EAE, animal model of MS mediated by T lymphocytes; details: cited from earlier work
Description: The Kv1.3 channel was discovered in the early 1980’s by the Chandy and Cahalan labs at the University of California Irvine and the Deutsch lab at the University of Pennsylvania. This K^+ channel, found in T lymphocytes, was the first to be described outside electrically excitable tissues. […] Kv1.3 in T lymphocytes is a voltage-gated homotetrameric membrane protein responsible for controlling the me ...

T1 sequence (P22459 whole entry): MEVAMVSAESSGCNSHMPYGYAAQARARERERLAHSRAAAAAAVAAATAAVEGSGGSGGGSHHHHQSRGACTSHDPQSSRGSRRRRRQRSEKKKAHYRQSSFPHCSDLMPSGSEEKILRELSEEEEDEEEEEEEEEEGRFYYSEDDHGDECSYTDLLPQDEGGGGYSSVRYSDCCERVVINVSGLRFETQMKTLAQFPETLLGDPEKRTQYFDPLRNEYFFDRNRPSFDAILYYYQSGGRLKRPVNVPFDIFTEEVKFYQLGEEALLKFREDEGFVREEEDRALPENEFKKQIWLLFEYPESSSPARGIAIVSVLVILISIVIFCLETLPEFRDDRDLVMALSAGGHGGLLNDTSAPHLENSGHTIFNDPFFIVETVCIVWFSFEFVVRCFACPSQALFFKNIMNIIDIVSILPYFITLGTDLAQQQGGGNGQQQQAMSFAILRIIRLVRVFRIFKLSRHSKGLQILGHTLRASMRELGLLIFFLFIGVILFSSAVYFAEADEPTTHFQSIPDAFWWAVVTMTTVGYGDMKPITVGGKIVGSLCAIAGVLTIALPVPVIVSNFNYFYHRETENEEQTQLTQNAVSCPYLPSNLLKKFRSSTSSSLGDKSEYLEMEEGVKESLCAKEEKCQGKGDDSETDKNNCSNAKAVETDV

Row | Compound | IC50 [1] [nM] | IC50 [2] [nM] | IC50 [3] [nM] | block of Kv1.4 at 100 nM [1] [% block at 100 nM] | block of Kv1.6 at 100 nM [2] [%] | effect on acute adoptive EAE [4]
1 | CC[C@H](C)[C@@H]1NC(=O)[C@@H](NC(=O)[C@H](CO)NC(=O)[C@@H](N)CCCNC(=N)N)CSSC[C@@H](C(=O)O)NC(=O)[C@H]([C@@H](C)O)NC(=O)CNC(=O)[C@@H]2CSSC[C@@H]3NC(=O)[C@H](CCC(N)=O)NC(=O)[C@H](Cc4ccccc4)NC(=O)[C@H](C)NC(=O)[C@H]([C@@H](C)O)NC(=O)[C@H](CSSC[C@H](NC(=O)[C@H](Cc4ccccc4)NC(=O)[C@H](CO)NC(=O)[C@H](CC(C)C)NC(=O)[C@H](CCCNC(=N)N)NC(=O)[C@H](Cc4ccc(O)cc4)NC(=O)[C@H](CCCCN)NC(=O)[C@H](CCSC)NC(=O)[C@H](CO)NC(=O)[C@H](Cc4cnc[nH]4)NC(=O)[C@H](CCCCN)NC3=O)C(=O)N[C@@H](CCCNC(=N)N)C(=O)N[C@@H](CCCCN)C(=O)N[C@@H]([C@@H](C)O)C(=O)N2)NC(=O)[C@H](CCCNC(=N)N)NC(=O)[C@H](CO)NC(=O)[C@H](CCCCN)NC(=O)[C@@H]2CCCN2C(=O)[C@H]([C@@H](C)CC)NC(=O)[C@H]([C@@H](C)O)NC(=O)[C@H](CC(=O)O)NC1=O [ShK, reference compound] | 0.312 ± 0.014 | 165 ± 8 | 0.0133 ± 0.0014 | – | – | –
2 | CC[C@H](C)[C@@H]1NC(=O)[C@@H](NC(=O)[C@H](CO)NC(=O)[C@@H](N)CCCNC(=N)N)CSSC[C@@H](C(=O)N[C@@H](C)C(=O)O)NC(=O)[C@H]([C@@H](C)O)NC(=O)CNC(=O)[C@@H]2CSSC[C@@H]3NC(=O)[C@H](CCCCN)NC(=O)[C@H](Cc4ccccc4)NC(=O)[C@H](C)NC(=O)[C@H]([C@@H](C)O)NC(=O)[C@H](CSSC[C@H](NC(=O)[C@H](Cc4ccccc4)NC(=O)[C@H](CO)NC(=O)[C@H](CC(C)C)NC(=O)[C@H](CCCNC(=N)N)NC(=O)[C@H](Cc4ccc(O)cc4)NC(=O)[C@H](CCCCN)NC(=O)[C@H](CCSC)NC(=O)[C@H](CO)NC(=O)[C@H](Cc4c[nH]cn4)NC(=O)[C@H](CCCCN)NC3=O)C(=O)N[C@@H](CCCNC(=N)N)C(=O)N[C@@H](CCCCN)C(=O)N[C@@H]([C@@H](C)O)C(=O)N2)NC(=O)[C@H](CCCNC(=N)N)NC(=O)[C@H](CO)NC(=O)[C@H](CCCCN)NC(=O)[C@@H]2CCCN2C(=O)[C@H]([C@@H](C)CC)NC(=O)[C@H]([C@@H](C)O)NC(=O)[C@H](CC(=O)O)NC1=O [ShK-234] | – | – | 0.037 ± 0.0046 | <15 | ~25 | –
3 | CC[C@H](C)[C@@H]1NC(=O)[C@H](CO)NC(=O)[C@H](Cc2c[nH]cn2)NC(=O)[C@H](CCCCN)NC(=O)[C@@H]2CSSC[C@@H]3NC(=O)[C@H]([C@@H](C)O)NC(=O)[C@H](CCCCN)NC(=O)[C@H](CCCNC(=N)N)NC(=O)[C@H](CSSC[C@H](NC(=O)[C@H](CCCNC(=N)N)NC(=O)[C@H](CO)NC(=O)[C@H](CCCCN)NC(=O)[C@@H]4CCCN4C(=O)[C@H]([C@@H](C)CC)NC(=O)[C@H]([C@@H](C)O)NC(=O)[C@H](CC(=O)O)NC(=O)[C@H]([C@@H](C)CC)NC(=O)[C@@H](NC(=O)[C@H](CO)NC(=O)[C@@H](N)CCCNC(=N)N)CSSC[C@@H](C(=O)N[C@@H](C)C(=O)O)NC(=O)[C@H]([C@@H](C)O)NC(=O)CNC3=O)C(=O)N[C@@H]([C@@H](C)O)C(=O)N[C@@H](C)C(=O)N[C@@H](Cc3ccccc3)C(=O)N[C@@H](CCCCN)C(=O)N2)NC(=O)[C@H](Cc2ccccc2)NC(=O)[C@H](CO)NC(=O)[C@H](CC(C)C)NC(=O)[C@H](CCCNC(=N)N)NC(=O)[C@H](Cc2ccc(O)cc2)NC(=O)[C@H](CCCCN)NC1=O [ShK-235] | – | – | 0.062 ± 0.0132 | <15 | ~25 | –
4 | kaliotoxin | – | – | – | – | – | ameliorate clinical signs
